Measured values from patent US20220387365A1, “TUCARESOL DERIVATIVES AND USES THEREOF” (BeyondSpring Pharmaceuticals, Inc., priority 2019, published 2022).

Assays:
[1] = Body weight in MC38 model (Example 10); type: in vivo; settings: for Mean Body Weight: in g (unit assumed)
Protocol: (§1) After tumor cell inoculation, the animals were checked daily for morbidity and mortality. During routine monitoring, the animals were checked for any effects of tumor growth and treatments on behavior such as mobility, food and water consumption, body weight gain/loss (Body weights were measured three times a week after randomization), eye/hair matting and any other abnormalities. Mortality and observed clinical signs were recorded for individual animals in detail.
Tumor volumes were measured three times a week after randomization in two dimensions using a caliper, and the volume was expressed in mm^3 using the formula: V=(L×W×W)/2, where V is tumor volume, L is tumor length (the longest tumor dimension) and W is tumor width (the longest tumor dimension perpendicular to L). Dosing as well as tumor and body weight measurements were conducted in a Laminar Flow Cabinet. The body weights and tumor volumes were measured by using StudyDirector™ software (version 3.1.399.19).
After one measurement of body weight loss (BWL)>20% or BWL>15% for consecutive 72 hours, the individual mouse was sacrificed. BWL was calculated based on the BW of mouse on the first day of treatment. After one measurement of BWL>15%, dosing holidays were given to the individual mouse with BWL>15% which was housed in a separate cage alone with daily monitoring for 72 hours, while other mice in the same group would receive dosing as scheduled., treatment was resumed when the BWL has recovered to BWL<10%. Supplemental gel was supplied to all the animals in the study on day 5 to day 15 upon sponsor's request.
The body weight of all animals was monitored throughout the study and animals were euthanized if they lost over 15% of their body weight relative to the weight at the first day of treatment for 3 consecutive days, or lose over 20% of their body weight relative to the weight at the first day of treatment.

MC-38 tumor cells = assay: In vivo efficacy in subcutaneous MC-38 murine colorectal cancer model (Example 9); parameters: species or system C57BL/6 mice
Protocol: This study evaluated preclinically the in vivo therapeutic efficacy of Compound C02 as a single agent and in combination with anti-PD-1 antibody in the treatment of subcutaneous MC-38 colorectal cancer models in C57BL/6 mice.
Treatment regimen may be changed per BW loss or other adverse effect according to rules set forth and/or client requests. When dosed on the same day, vehicle for CO2 was administered about 1-2 hours after the dosing of anti-PD1 or control IgG.
The […] tumor cells were maintained in vitro as a monolayer culture in RPMI-1640 supplemented with 10% fetal bovine serum at 37° C. in an atmosphere of 5% CO2 in air. The cells in an exponential growth phase were harvested and counted for tumor inoculation. […]
as §1, with “tumor cells” for “tumor cell”, “gain/loss (body” for “gain/loss (Body”, “weights will be” for “weights were”, “measured twice per” for “measured three times a”, “detail. […]” for “detail.”
Rectal temperature was recorded without anaesthesia on the day prior to the first dosing and on the day after the last oral dose.

[2] = Stability in C57BL/6 K2EDTA plasma at 22° C. over 1 hour by LC; type: in vitro ADME, mouse; settings: for Remaining %: mouse plasma, 2,000 ng/mL, 22°C
Protocol: Tucaresol, Compound B02, Compound C01, Compound C02-1, and Compound C02 were dosed once, by IV bolus (3 mg/kg in 20% hydroxyprophyl-13-cyclodextrin with 1 eq NaOH) or PO (10 mg/kg in 1% carboxymethylcellulose/0.1% tween-80 in water), to non-fasted male C57BL/6 mice. Animals were bled from the dorsal metatarsal vein (from the heart for 24 hour time point) for K2-EDTA plasma 0.083 (for IV only), 0.25, 0.5, 1, 2, 4, 8, and 24 hours after dosing. The plasma concentration of the dosed tucaresol or compound were measured by LC/MS/MS (I-CMS-8060 instrument for MS). PK parameters were then calculated with WinNonlin 6.1. For Compounds C01, CO2 and CO2-1, stability in C57BL/6 K2EDTA plasma was also evaluated at 22° C. over 1 hour by utilizing LC.
Compounds C01 and C02-1 are unstable at 22° C.

## O=Cc1c(OCc2ccc(C(=O)O)cc2)cccc1OC1O[C@H](CO)[C@@H](O)[C@H](O)[C@H]1O (stereo partly shown) [Compound C02]
[1]; 20 mg/kg, PO, QDx5 (day 1-5), as a monotherapy or in combination with anti-PD1
  weight loss (in words): not associated with weight loss
[1]; Day 1, Group 02: C02 20 mg/kg p.o. QD × 5 (day 1~5) + Rat IgG2a 10 mg/kg i.p. BIW
  Mean Body Weight: 18.9 ± 0.2
[1]; Day 1, Group 04: C02 20 mg/kg p.o. QD × 5 (day 1~5) in combination with PD-1 (RMP 1-14) 10 mg/kg i.p. BIW × 6 doses
  Mean Body Weight: 19.2 ± 0.2
[1]; Day 4, Group 02: C02 20 mg/kg p.o. QD × 5 (day 1~5) + Rat IgG2a 10 mg/kg i.p. BIW
  Mean Body Weight: 19.2 ± 0.2
[1]; Day 4, Group 04: C02 20 mg/kg p.o. QD × 5 (day 1~5) in combination with PD-1 (RMP 1-14) 10 mg/kg i.p. BIW × 6 doses
  Mean Body Weight: 19.3 ± 0.2
[1]; Day 8, Group 02: C02 20 mg/kg p.o. QD × 5 (day 1~5) + Rat IgG2a 10 mg/kg i.p. BIW
  Mean Body Weight: 19.6 ± 0.2
[1]; Day 8, Group 04: C02 20 mg/kg p.o. QD × 5 (day 1~5) in combination with PD-1 (RMP 1-14) 10 mg/kg i.p. BIW × 6 doses
  Mean Body Weight: 19.9 ± 0.1
[1]; Day 10, Group 02: C02 20 mg/kg p.o. QD × 5 (day 1~5) + Rat IgG2a 10 mg/kg i.p. BIW
  Mean Body Weight: 20 ± 0.3
[1]; Day 10, Group 04: C02 20 mg/kg p.o. QD × 5 (day 1~5) in combination with PD-1 (RMP 1-14) 10 mg/kg i.p. BIW × 6 doses
  Mean Body Weight: 20.3 ± 0.2
[1]; Day 12, Group 02: C02 20 mg/kg p.o. QD × 5 (day 1~5) + Rat IgG2a 10 mg/kg i.p. BIW
  Mean Body Weight: 20.6 ± 0.4
[1]; Day 12, Group 04: C02 20 mg/kg p.o. QD × 5 (day 1~5) in combination with PD-1 (RMP 1-14) 10 mg/kg i.p. BIW × 6 doses
  Mean Body Weight: 21 ± 0.2
[1]; Day 15, Group 02: C02 20 mg/kg p.o. QD × 5 (day 1~5) + Rat IgG2a 10 mg/kg i.p. BIW
  Mean Body Weight: 22.3 ± 0.5
[1]; Day 15, Group 04: C02 20 mg/kg p.o. QD × 5 (day 1~5) in combination with PD-1 (RMP 1-14) 10 mg/kg i.p. BIW × 6 doses
  Mean Body Weight: 21.9 ± 0.4
MC-38 tumor cells; QDx5, as a monotherapy or in combination with anti-PD1
  time of treatment after which the benefits were especially apparent: 15 to 20 days
MC-38 tumor cells; QDx5 dosing, down to 10 mg/kg QDx5
  dose response of efficacy (in words): inverse dose response relationship
[2]; 22° C.
  mouse plasma stability (in words): initial instability
[2]; 0 min
  Remaining %: 100%
[2]; 5 min
  Remaining %: 62.3%
[2]; 15 min
  Remaining %: 79.6%
[2]; 30 min
  Remaining %: 68.7%
[2]; 60 min
  Remaining %: 61.7%
[2]; mouse plasma, 22° C., through 1 hour
  level of starting at which the compound leveled off: 60-70%
